This note sets out measurements from patent US10414778B2, “Methods for treatment of resistant cancer” (New Mexico Tech University Research Park Corporation, priority 2016, dated 2019).

The test system of experiment [1] is MES-SA cells. Kind of experiment: MTT growth inhibition, MES-SA uterine sarcoma. It counts as cell-based. The conditions noted are these: Homo sapiens; parent MES-SA cells at start of selection of doxorubicin-resistant cells; read-out: GI50 concentration. The protocol:
(§1) Human cancer cell lines were obtained from the American Type Culture Collection (ATCC, Manassas, Va., USA), the European Collection of Cell Culture (ECACC, Salisbury, UK), and the Deutsche Sammlung von Mikroorganismen und Zellkulturen (DSMZ, Braunschweig, Germany). Human cervical adenocarcinoma HeLa cells were cultured in DMEM supplemented with 10% fetal bovine serum (FBS). Human mammary carcinoma MCF-7 cells were cultured in RPMI supplemented with 10% FBS. The U87 cells (ATCC HTB-14) were cultured in DMEM culture medium, while the A549 cells (DSMZ ACC107) were cultured in RPMI culture medium supplemented with 10% heat-inactivated FBS. The GBM Hs683 (ATCC HTB-138) and the T98G (ATCC CRL-1690) cell lines were cultivated in DMEM supplemented with 10% FBS. The GBM U251 cells (ECACC code 09063001) were cultured in 10% MEM. The human uterine sarcoma MES-SA and MES-SA/Dx5 cells were cultured in RPMI-1640 medium supplemented with 10% FBS with MES SA/Dx5 maintained in the presence of 500 nM Doxorubicin (Sigma™). The U373 glioblastoma cells (ECACC 08061901) were cultured in RPMI culture medium supplemented with 10% heat-inactivated FBS.
All compounds were dissolved in DMSO at a concentration of either 100 mM or 50 mM prior to cell treatment. The cells were trypsinized and seeded at various cell concentrations depending on the cell type. The cells were grown for 24 h to 72 h, treated with compounds at concentrations ranging from 0.001 to 100 μM, and incubated for 48, 72, or 96 h in 100 or 200 μL media depending on the cell line used. Cells treated with 0.1% DMSO were used as a negative control, and cells treated with 1 μM phenyl arsine oxide (PAO) were used as a positive control. […]
Drug-resistant cell lines (i.e., glioma: Hs683, U373, U251, U87, T98G; lung cancer: A549, H2073; uterine carcinoma: MES-SA/Dx5) were complemented with drug-sensitive cell lines, H1993 lung cancer and MES-SA uterine cancer, which were used as controls. […] The GI50 values were calculated after 48-96 hours of treatment with the indicated compounds in replicate using the MTT growth assay.

For experiment [2], the system named is U251 cells. Briefly: MTT growth inhibition, U251 glioma. It counts as cell-based, human. The protocol: as §1
(§2) All compounds were dissolved in DMSO at a concentration of either 100 mM or 50 mM prior to cell treatment. The cells were trypsinized and seeded at various cell concentrations depending on the cell type. The cells were grown for 24 h to 72 h, treated with compounds at concentrations ranging from 0.001 to 100 μM, and incubated for 48, 72, or 96 h in 100 or 200 μL media depending on the cell line used. Cells treated with 0.1% DMSO were used as a negative control, and cells treated with 1 μM phenyl arsine oxide (PAO) were used as a positive control.
(§3) Compound 4l was evaluated for in vitro growth inhibition against a panel of cancer cell lines, including U373, U251, U87, T98G, human GBM, and A549 NSCLC. […] Compound 4l was also evaluated for in vitro growth inhibition against the apoptosis-sensitive tumor model Hs683 anaplastic oligodendroglioma as a reference.
(§4) Due to their high potencies, compounds 5l and 5g were used to determine the effects of the compounds on drug-resistant tumor cells. Drug-resistant cell lines (i.e., glioma: Hs683, U373, U251, U87, T98G; lung cancer: A549, H2073; uterine carcinoma: MES-SA/Dx5) were complemented with drug-sensitive cell lines, H1993 lung cancer and MES-SA uterine cancer, which were used as controls. Bulbispermine and paclitaxel were also used as controls. The GI50 values were calculated after 48-96 hours of treatment with the indicated compounds in replicate using the MTT growth assay.

Experiment [3] concerns U373 glioblastoma cells. Kind of experiment: MTT growth inhibition, U373 glioma. It counts as cell-based, human. The method, then:
as §1, §2, §3, §4

Experiment [4] concerns Hs683 cells. Briefly: MTT growth inhibition, Hs683 glioma. The experiment is classed as cell-based, human. The protocol:
as §1, §2, §3, §4

In experiment [5] the test system is T98G cells. Briefly: MTT growth inhibition, T98G glioma. It counts as cell-based, human. The method, then: as §1, §2, §3, §4
The test system of experiment [6] is U87 cells. Briefly: MTT growth inhibition, U87 glioma. The experiment is classed as cell-based, human. The method, then: as §1, §2, §3, §4
Experiment [7] deals with GBM 090909 cells. Briefly: MTT growth inhibition, primary GBM-derived neurosphere culture GBM 090909. The settings on record: Homo sapiens, Table 3, 48-96 h treatment, read-out: GI50 in vitro values, glioma GBM 090909. The experiment is classed as cell-based. The protocol:
(§5) Cell culture media were supplemented with 4 mM glutamine (Lonza code BE17-605E), 100 μg/mL gentamicin (Lonza code 17-5182), and penicillin-streptomycin (200 units/ml and 200 μg/ml) (Lonza code 17-602E). Primary GBM-derived neurosphere cultures from a patient undergoing surgical debulking were established using previously described methods. Briefly, resected tumor tissue was minced with a sterile scalpel and dissociated in 3 mL of neurobasal (NB) media containing 100 U/mL of collagenase (Life Technologies™) for 30 minutes at 37° C. Dissociated tissue was then vortexed and filtered using a sterile 70 um nylon Falcon™ cell strainer (Corning™). […]
as §3

The subject of experiment [8] is GBM 031810 cells. Briefly: MTT growth inhibition, primary GBM-derived neurosphere culture GBM 031810. It counts as cell-based. The settings on record: Homo sapiens, Table 3, 48-96 h treatment, read-out: GI50 in vitro values, glioma GBM 031810. The protocol: as §5, §3

Read-outs that look alike come from different tables or passages of the source.

Take `COc1cccc2c1C(=O)c1c(O)c3c(c(O)c1C2=O)C[C@@](O)(C(=O)CO)C[C@@H]3O[C@H]1C[C@H](N)[C@H](O)[C@H](C)O1` [DOX, doxorubicin, reference compound]: the GI50 in experiment [1] was 0.1 µM.

For the compound `O[C@H]1C=C[C@@]23c4cc5c(cc4CN(C[C@@H]2O)[C@H]3C1)OCO5` [bulbispermine, reference compound], the GI50 turned out to be 41 µM in experiment [2] (Table 3, 48-96 h treatment, read-out: GI50 in vitro values, glioma U251); 41 µM in experiment [2] (Table 5, 48-96 hours of treatment, read-out: GI50, Glioma U251); 53 µM in experiment [3] (Table 3, 48-96 h treatment, read-out: GI50 in vitro values, glioma U373); 53 µM in experiment [3] (Table 5, 48-96 hours of treatment, read-out: GI50, Glioma U373); 27 µM in experiment [4] (Table 3, 48-96 h treatment, read-out: GI50 in vitro values, glioma Hs683); 27 µM in experiment [4] (Table 5, 48-96 hours of treatment, read-out: GI50, Glioma Hs683). For the same compound, the GI50 was determined as 99 µM in experiment [5] (Table 3, 48-96 h treatment, read-out: GI50 in vitro values, glioma T98G); 99 µM in experiment [5] (Table 5, 48-96 hours of treatment, read-out: GI50, Glioma T98G); 38 µM in experiment [6] (Table 3, 48-96 h treatment, read-out: GI50 in vitro values, glioma U87); 38 µM in experiment [6] (Table 5, 48-96 hours of treatment, read-out: GI50, Glioma U87).

Regarding `Cn1nnc2c(C(N)=O)ncn2c1=O` [TMZ, temozolomide, reference compound], the GI50 in experiment [7] was 50 µM; in experiment [8], over 1000 µM.
